The values below come from US20170190705A1, “Compositions and Methods for Inhibiting BMP” (THE BRIGHAM AND WOMAN'S HOSPITAL, INC., priority 2014, published 2017).

Read-outs that look alike come from different tables or passages of the source.

Common to all, as to assay type: biochemical
In assay [1] the target is LCK (Homo sapiens, UniProt P06239). As to the kind of experiment: Kinome profiling LCK. Particulars: for inhibition at 0.1 µM: 100 nM. The procedure:
(§1) . The kinome-wide selectivity was determined following the methods previously reported by Mohedas et al., ACS Chem Biol 2013, 8, 1291-1302 and Sanvitale et al., PLoS One 2013, 8, e62721.

The target of assay [2] is T1, PRKD1 (Homo sapiens, UniProt Q15139).
T1 sequence (Q15139 1-912): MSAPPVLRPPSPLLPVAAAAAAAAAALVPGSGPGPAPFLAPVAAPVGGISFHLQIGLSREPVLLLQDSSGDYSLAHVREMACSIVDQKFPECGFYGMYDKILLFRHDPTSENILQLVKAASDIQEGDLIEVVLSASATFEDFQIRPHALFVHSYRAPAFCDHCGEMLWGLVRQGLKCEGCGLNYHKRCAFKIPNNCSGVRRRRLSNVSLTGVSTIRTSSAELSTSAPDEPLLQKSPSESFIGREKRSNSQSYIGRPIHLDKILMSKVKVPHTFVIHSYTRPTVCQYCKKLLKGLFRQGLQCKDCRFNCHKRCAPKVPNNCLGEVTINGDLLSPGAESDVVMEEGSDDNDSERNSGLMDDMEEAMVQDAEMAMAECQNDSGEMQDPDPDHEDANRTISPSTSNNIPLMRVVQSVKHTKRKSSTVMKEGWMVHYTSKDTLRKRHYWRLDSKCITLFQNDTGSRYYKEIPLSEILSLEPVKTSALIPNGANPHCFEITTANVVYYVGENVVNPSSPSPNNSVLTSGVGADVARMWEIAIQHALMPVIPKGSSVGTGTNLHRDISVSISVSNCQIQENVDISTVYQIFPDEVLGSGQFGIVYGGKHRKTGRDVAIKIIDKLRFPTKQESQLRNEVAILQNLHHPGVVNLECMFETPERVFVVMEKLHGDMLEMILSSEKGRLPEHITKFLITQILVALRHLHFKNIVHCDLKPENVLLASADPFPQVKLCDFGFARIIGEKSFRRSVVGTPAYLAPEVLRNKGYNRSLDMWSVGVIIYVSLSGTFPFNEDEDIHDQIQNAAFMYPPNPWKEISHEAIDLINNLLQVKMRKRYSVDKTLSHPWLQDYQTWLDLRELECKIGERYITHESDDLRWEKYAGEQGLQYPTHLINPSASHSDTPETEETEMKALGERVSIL
As to the kind of experiment: Kinome profiling PRKD1. The settings on record: read-out: Inhibitory activity PRKD1; for inhibition at 0.1 µM: 100 nM. On the procedure:
as §1

For assay [3], the target named is T2, EPHB3 (Homo sapiens, UniProt P54753).
T2 sequence (P54753 34-998): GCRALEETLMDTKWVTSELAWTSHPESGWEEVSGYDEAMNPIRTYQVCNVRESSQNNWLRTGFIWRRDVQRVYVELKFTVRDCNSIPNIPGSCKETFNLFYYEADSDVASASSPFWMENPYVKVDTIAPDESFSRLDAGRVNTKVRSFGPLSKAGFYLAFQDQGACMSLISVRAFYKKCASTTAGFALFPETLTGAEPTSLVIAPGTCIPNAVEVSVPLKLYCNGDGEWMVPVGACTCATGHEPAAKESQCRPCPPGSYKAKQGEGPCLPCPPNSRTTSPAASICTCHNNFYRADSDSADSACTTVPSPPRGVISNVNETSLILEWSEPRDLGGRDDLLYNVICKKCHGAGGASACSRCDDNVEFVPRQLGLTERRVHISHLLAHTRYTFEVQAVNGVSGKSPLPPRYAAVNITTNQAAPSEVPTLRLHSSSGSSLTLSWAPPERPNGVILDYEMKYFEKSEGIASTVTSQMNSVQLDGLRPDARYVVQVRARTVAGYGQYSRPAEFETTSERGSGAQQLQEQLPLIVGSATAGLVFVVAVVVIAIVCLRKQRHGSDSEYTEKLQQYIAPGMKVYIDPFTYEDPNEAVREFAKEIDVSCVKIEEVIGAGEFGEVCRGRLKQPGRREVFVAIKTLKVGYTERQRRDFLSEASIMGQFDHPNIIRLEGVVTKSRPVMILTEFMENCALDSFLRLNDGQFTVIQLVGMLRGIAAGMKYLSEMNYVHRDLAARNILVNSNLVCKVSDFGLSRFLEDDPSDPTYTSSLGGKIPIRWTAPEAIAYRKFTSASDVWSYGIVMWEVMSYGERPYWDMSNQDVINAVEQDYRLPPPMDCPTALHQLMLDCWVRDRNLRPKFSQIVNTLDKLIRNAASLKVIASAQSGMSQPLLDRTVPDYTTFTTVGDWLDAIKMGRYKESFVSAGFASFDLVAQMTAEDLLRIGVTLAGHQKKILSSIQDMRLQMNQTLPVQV
The assay is described as follows: Kinome profiling EPHB3. Particulars: read-out: Inhibitory activity EPHB3; for inhibition at 0.1 µM: 100 nM. The procedure:
as §1

The target of assay [4] is NEK6 (Homo sapiens, UniProt Q9HC98). The assay is described as follows: Kinome profiling NEK6. Particulars: read-out: Inhibitory activity NEK6; for inhibition at 0.1 µM: 100 nM. The procedure:
as §1

For assay [5], the target named is HIPK1 (Homo sapiens, UniProt Q86Z02). As to the kind of experiment: Kinome profiling HIPK1. Particulars: read-out: Inhibitory activity HIPK1; for inhibition at 0.1 µM: 100 nM. On the procedure: as §1
HIPK1, sequence (Q86Z02 whole entry): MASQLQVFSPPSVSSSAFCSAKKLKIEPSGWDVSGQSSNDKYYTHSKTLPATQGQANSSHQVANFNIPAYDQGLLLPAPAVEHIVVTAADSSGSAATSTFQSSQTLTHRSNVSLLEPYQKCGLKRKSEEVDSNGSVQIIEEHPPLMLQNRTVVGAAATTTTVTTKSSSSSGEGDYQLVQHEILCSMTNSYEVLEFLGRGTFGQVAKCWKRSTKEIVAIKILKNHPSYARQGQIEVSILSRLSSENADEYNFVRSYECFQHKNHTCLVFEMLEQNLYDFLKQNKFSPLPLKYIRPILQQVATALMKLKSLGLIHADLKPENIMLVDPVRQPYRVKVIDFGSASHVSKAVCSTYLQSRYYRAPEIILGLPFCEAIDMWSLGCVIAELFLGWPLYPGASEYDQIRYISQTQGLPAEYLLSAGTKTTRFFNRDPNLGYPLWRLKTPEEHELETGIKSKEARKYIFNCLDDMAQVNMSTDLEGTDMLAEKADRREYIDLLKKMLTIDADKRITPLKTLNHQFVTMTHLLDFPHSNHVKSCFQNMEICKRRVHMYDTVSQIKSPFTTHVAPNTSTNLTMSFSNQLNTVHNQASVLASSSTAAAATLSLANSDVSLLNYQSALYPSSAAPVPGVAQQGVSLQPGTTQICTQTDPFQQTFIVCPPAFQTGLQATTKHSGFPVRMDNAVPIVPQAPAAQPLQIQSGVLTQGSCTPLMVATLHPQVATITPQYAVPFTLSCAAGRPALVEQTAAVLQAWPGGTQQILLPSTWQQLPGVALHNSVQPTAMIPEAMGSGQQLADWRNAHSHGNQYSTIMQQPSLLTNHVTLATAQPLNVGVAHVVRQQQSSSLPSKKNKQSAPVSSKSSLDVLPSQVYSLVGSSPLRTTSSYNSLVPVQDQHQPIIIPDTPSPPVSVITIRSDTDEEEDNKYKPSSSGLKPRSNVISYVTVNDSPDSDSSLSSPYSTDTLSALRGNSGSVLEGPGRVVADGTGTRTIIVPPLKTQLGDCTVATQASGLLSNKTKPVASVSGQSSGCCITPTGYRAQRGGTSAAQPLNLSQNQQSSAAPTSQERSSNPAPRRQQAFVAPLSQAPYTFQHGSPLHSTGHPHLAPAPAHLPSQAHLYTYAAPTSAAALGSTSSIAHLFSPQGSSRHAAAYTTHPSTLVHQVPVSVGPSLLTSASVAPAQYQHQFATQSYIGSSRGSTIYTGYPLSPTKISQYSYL
The target in assay [6] is CLK3 (Homo sapiens, UniProt P49761). The assay is described as follows: Kinome profiling CLK3. Particulars: read-out: Inhibitory activity CLK3; for inhibition at 0.1 µM: 100 nM. On the procedure:
as §1

[7] abbreviates: read-out: Inhibitory activity LCK.
Where [8] appears, read: Table 4, read-out: Inhibitory Activity LCK.

NEK6, sequence (Q9HC98 whole entry): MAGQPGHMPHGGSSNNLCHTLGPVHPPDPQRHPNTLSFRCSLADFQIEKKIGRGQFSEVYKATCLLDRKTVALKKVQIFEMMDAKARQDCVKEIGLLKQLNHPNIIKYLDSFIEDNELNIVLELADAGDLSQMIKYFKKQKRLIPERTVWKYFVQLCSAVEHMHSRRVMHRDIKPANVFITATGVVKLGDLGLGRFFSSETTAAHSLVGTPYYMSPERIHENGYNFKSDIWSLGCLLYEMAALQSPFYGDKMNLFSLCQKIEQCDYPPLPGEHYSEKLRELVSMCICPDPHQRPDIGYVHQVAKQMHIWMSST
LCK, sequence (P06239 whole entry): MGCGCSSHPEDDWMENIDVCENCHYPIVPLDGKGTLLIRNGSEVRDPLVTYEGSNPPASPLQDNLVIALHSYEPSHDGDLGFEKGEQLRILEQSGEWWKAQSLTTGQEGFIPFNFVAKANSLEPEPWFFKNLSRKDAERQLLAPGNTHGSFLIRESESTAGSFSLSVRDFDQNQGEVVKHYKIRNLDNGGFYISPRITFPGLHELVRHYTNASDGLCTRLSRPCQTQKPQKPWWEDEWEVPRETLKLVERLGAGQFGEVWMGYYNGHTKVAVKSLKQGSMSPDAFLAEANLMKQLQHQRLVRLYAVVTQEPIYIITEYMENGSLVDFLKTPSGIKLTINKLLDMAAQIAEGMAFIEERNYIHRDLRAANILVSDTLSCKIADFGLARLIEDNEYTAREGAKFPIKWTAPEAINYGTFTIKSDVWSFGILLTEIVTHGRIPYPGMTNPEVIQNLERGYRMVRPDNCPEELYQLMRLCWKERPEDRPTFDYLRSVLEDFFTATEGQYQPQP
CLK3, sequence (P49761 whole entry): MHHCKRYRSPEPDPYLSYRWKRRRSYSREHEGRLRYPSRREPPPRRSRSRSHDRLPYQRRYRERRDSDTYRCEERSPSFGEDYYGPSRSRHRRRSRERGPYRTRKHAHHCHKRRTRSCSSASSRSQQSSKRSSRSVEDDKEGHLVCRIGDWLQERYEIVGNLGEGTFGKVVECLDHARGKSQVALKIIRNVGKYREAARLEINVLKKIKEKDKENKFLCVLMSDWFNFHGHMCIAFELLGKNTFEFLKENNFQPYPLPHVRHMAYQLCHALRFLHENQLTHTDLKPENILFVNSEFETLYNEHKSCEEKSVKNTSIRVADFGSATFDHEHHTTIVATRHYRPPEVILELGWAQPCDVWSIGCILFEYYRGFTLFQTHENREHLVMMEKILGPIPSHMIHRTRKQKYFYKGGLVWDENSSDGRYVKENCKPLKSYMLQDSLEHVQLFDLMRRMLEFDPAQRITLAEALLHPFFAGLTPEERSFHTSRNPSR

For `COc1cc(-c2cc(-c3ccc(N4CCNCC4)cc3)cnc2N)cc(OC)c1OC` [Compound 15, 5-(4-(piperazin-1-yl)phenyl)-3-(3,4,5-trimethoxyphenyl)pyridin-2-amine], the inhibition at 0.1 µM in assay [1] (setting [7]) is 65%; in assay [2], 11%; in assay [3], 5%; in assay [4], 0%; in assay [5], 1%; in assay [6], 0%. Besides, the inhibition at 1 µM in assay [1] (setting [7]) was 86%; in assay [2], 50%; in assay [3] it was 7%; in assay [4], 4%; in assay [5] it was 2%; in assay [6] it was 0%.

Regarding `COc1cc(-c2cc(-c3ccc(N4CCNCC4)cc3)cnc2C)cc(OC)c1OC` [Compound 10, 1-(4-(6-methyl-5-(3,4,5-trimethoxyphenyl)pyridin-3-yl)phenyl)piperazine], the inhibition at 0.1 µM in assay [1] (setting [8]) came out at 21%; in assay [1] (setting [7]) it was 21%; in assay [2], 4%; in assay [3], 1%; in assay [4], 1%; in assay [5] it was 1%. In assay [6], the inhibition at 0.1 µM is 9%. Moreover, the inhibition at 1 µM in assay [1] (setting [8]) was determined as 65%; in assay [1] (setting [7]), 65%; in assay [2], 23%; in assay [3], 1%; in assay [4], 0%; in assay [5] it was 1%. Further, the inhibition at 1 µM in assay [6] was found to be 12%.
